Here are results for 24 compounds from patent US20120214847A1, “2-[1-PHENYL-5-HYDROXY-4a-SUBSTITUTED-HEXAHYDROCYCLOPENTA[F]INDAZOL-5-YL]ETHYL PHENYL DERIVATIVES AS GLUCOCORTICOID RECEPTOR LIGANDS” (Merck Sharp & Dohme Corp., priority 2009, published 2012).

The assay addresses T1, human GR (Homo sapiens, UniProt P04150).
T1 construct: naturally expresses the human GR; endogenous in cells
T1 sequence (P04150 1-777): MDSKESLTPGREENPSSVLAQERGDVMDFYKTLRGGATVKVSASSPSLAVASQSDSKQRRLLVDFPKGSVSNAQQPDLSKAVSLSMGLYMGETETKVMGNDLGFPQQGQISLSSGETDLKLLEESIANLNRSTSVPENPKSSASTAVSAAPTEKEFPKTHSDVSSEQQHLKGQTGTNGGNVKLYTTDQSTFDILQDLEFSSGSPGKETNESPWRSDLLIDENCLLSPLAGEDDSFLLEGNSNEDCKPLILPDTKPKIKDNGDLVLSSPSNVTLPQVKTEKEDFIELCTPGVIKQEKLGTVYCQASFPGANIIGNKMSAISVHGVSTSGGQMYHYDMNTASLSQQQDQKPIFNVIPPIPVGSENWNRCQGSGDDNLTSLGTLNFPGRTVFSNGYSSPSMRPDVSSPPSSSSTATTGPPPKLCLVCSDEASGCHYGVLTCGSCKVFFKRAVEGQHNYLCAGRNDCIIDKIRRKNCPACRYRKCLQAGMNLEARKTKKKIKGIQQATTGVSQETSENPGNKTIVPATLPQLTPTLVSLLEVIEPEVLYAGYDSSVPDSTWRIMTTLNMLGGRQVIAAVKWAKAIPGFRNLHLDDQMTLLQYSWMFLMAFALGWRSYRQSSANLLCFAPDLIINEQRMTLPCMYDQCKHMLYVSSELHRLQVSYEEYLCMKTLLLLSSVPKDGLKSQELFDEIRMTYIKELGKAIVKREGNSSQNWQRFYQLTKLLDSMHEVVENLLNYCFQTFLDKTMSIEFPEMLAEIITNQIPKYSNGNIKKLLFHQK
In words: Transrepression assay (GITAR), TNFα-β-lactamase reporter in U937 cells. The format is cell-based. The settings on record: for EC50 / Transrepression U937 Cells GITAR Emax (%): U937 cells; for EC50: IP = inflection point; for Emax: U-937, U937 cells; for Emax / Transrepression U937 Cells GITAR Emax (%): activity repressed by 100 nM dexamethasone alone set as 100%. The method, boiled down: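 U937 cells stably carrying TNFα promoter–β-lactamase, endogenous GR, preincubated with compound 30–45 min at 37° C., then stimulated with 5 ng/ml PMA plus 100 ng/ml LPS for ~18 h. CCF2-AM read-out; repression by 100 nM dexamethasone set as 100%.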

By EC50 is commonly meant the midpoint of the concentration-response curve. A higher EC50 goes with weaker potency. By Emax is commonly meant the maximal effect, on the per cent scale that the assay sets. `NC(=O)CNC(=O)c1cc(F)cnc1CC[C@]1(O)CCC2=Cc3c(cnn3-c3ccc(F)cc3)C[C@@]21C1CC1` [Example 44, N-(2-Amino-2-oxoethyl)-2-{2-[(4aR,5R)-4a-cyclopropyl-1-(4-fluorophenyl)-5-hydroxy-1,4,4a,5,6,7-hexahydrocyclopenta[f]indazol-5-yl]ethyl}-5-fluoropyridine-3-carboxamide] returned a concentration for a half-maximal effect (EC50) of 0.038 µM and an Emax of 86%.
`CC[C@]12Cc3cnn(-c4ccccc4)c3C=C1CC[C@@]2(O)CCc1ccc(F)cc1C(N)=O` [Example 6] yielded an EC50 of 0.143 µM and an Emax of 75%.
The corresponding values for `O=S(=O)(c1ccccc1CC[C@]1(O)CCC2=Cc3c(cnn3-c3ccc(F)cc3)C[C@@]21C1CC1)C1CC1` [Example 63, (4aR,5R)-4a-Cyclopropyl-5-{2-[2-(cyclopropylsulfonyl)phenyl]ethyl}-1-(4-fluorophenyl)-1,4,4a,5,6,7-hexahydrocyclopenta[f]indazol-5-ol] are 0.127 µM and 75%.
The corresponding values for `CC[C@]12Cc3cnn(-c4ccc(F)cc4)c3C=C1CC[C@@]2(O)CCc1nccc(C2CC2)c1C(=O)OC` [Example 41, Methyl 4-cyclopropyl-2-{2-[(4aS,5R)-4a-ethyl-1-(4-fluorophenyl)-5-hydroxy-1,4,4a,5,6,7-hexahydrocyclopenta[f]indazol-5-yl]ethyl}pyridine-3-carboxylate] are 0.262 µM and 79%.
The corresponding values for `COc1ccnc(CC[C@]2(O)CCC3=Cc4c(cnn4-c4ccc(F)cc4)C[C@@]32C2CC2)c1C(F)C(N)=O` (stereo partly drawn) [Example 66, 2-(2-{2-[(4aR,5R)-4a-Cyclopropyl-1-(4-fluorophenyl)-5-hydroxy-1,4,4a,5,6,7-hexahydrocyclopenta[f]indazol-5-yl]ethyl}-4-methoxypyridin-3-yl)-2-fluoroacetamide] are 0.012 µM and 76%.
`N#Cc1ccccc1CC[C@]1(O)CCC2=Cc3c(cnn3-c3ccccc3)C[C@@]21C1CC1` [Example 27, 2-{2-[(4aR,5R)-4a-Cyclopropyl-5-hydroxy-1-phenyl-1,4,4a,5,6,7-hexahydrocyclopenta[f]indazol-5-yl]ethyl}benzonitrile] yielded an EC50 of 0.051 µM and an Emax of 86%.
For the compound `CCS(=O)(=O)c1ccccc1CC[C@]1(O)CCC2=Cc3c(cnn3-c3ccc(F)cc3)C[C@@]21C1CC1` [Example 59, (4aR,5R)-4a-Cyclopropyl-5-{2-[2-(ethylsulfonyl)phenyl]ethyl}-1-(4-fluorophenyl)-1,4,4a,5,6,7-hexahydrocyclopenta[f]indazol-5-ol], the EC50 was found to be 0.074 µM and the Emax came out at 88%.
Compound `CC[C@]12Cc3cnn(-c4ccc(F)cc4)c3C=C1CC[C@@]2(O)CCc1ccccn1` [Example 16, (4aS,5R)-4a-Ethyl-1-(4-fluorophenyl)-5-[2-(pyridin-2-yl)ethyl]-1,4,4a,5,6,7-hexahydrocyclopenta[f]indazol-5-ol] displayed an EC50 of 0.093 µM and an Emax of 79%.
In the same order, the values of `CC[C@]12Cc3cnn(-c4ccc(F)cc4)c3C=C1CC[C@@]2(O)CCc1cccc(OC)c1C(N)=O` [Example 37, 2-{2-[(4aS,5R)-4a-Ethyl-1-(4-fluorophenyl)-5-hydroxy-1,4,4a,5,6,7-hexahydrocyclopenta[f]indazol-5-yl]ethyl}-6-methoxybenzamide] are 0.008 µM and 90%.
`CC[C@]12Cc3cnn(-c4ccc(F)cc4)c3C=C1CC[C@@]2(O)CC(O)c1ccc(F)cn1` (single isomer, unassigned) [Example 69b]: a half-maximal response (EC50) required 0.094 µM and the “Transrepression U937 Cells GITAR Emax (%)” value was 80%.
In the same order, the values of `CC[C@]12Cc3cnn(-c4ccccc4)c3C=C1CC[C@@]2(O)CC(O)c1ccccn1` (single isomer, unassigned) [Example 67b] are 0.277 µM and 44%.
On to `CC[C@]12Cc3cnn(-c4ccc(F)cc4)c3C=C1CC[C@@]2(O)CCc1ncccc1F` [Example 17, (4aS,5R)-4a-Ethyl-1-(4-fluorophenyl)-5-[2-(3-fluoropyridin-2-yl)ethyl]-1,4,4a,5,6,7-hexahydrocyclopenta[f]indazol-5-ol], for which it took 0.044 µM to reach a half-maximal effect (EC50) and the Emax stood at 89%.
The corresponding values for `CC[C@]12Cc3cnn(-c4ccc(F)cc4)c3C=C1CC[C@@]2(O)CCc1nccc(OC)c1CC(N)=O` [Example 64, 2-(2-{2-[(4aS,5R)-4a-Ethyl-1-(4-fluorophenyl)-5-hydroxy-1,4,4a,5,6,7-hexahydrocyclopenta[f]indazol-5-yl]ethyl}-4-methoxypyridin-3-yl)acetamide] are 0.072 µM and 77%.
Compound `CC[C@]12Cc3cnn(-c4ccc(F)cc4)c3C=C1CC[C@@]2(O)CCc1cc(C(F)(F)F)ccn1` [Example 34, (4aS,5R)-4a-Ethyl-1-(4-fluorophenyl)-5-{2-[4-(trifluoromethyl)pyridin-2-yl]ethyl}-1,4,4a,5,6,7-hexahydrocyclopenta[f]indazol-5-ol] had an EC50 of 0.125 µM and an Emax of 85%.
`CC[C@]12Cc3cnn(-c4cccnc4)c3C=C1CC[C@@]2(O)CCc1ccc(F)cc1C#N` [Example 9, 2-{2-[(4aS,5R)-4a-Ethyl-5-hydroxy-1-(pyridin-3-yl)-1,4,4a,5,6,7-hexahydrocyclopenta[f]indazol-5-yl]ethyl}-5-fluorobenzonitrile] registered an EC50 of 0.12 µM and an Emax of 71%.
The corresponding values for `NC(=O)c1c(C(F)(F)F)ccnc1CC[C@]1(O)CCC2=Cc3c(cnn3-c3ccc(F)cc3)C[C@@]21C1CC1` [Example 55, 2-{2-[(4aR,5R)-4a-Cyclopropyl-1-(4-fluorophenyl)-5-hydroxy-1,4,4a,5,6,7-hexahydrocyclopenta[f]indaozol-5-yl]ethyl}-4-(trifluoromethyl)pyridine-3-carboxamide] are 0.002 µM and 87%.
The corresponding values for `CC[C@]12Cc3cnn(-c4ccc(F)cc4)c3C=C1CC[C@@]2(O)CCc1ccc(F)cn1` [Example 19, (4aS,5R)-4a-Ethyl-1-(4-fluorophenyl)-5-[2-(5-fluoropyridin-2-yl)ethyl]-1,4,4a,5,6,7-hexahydrocyclopenta[f]indazol-5-ol] are 0.263 µM and 77%.
Turning to `NC(=O)c1c(C2CC2)ccnc1CC[C@]1(O)CCC2=Cc3c(cnn3-c3ccc(F)cc3)C[C@@]21C1CC1` [Example 49, 4-Cyclopropyl-2-{2-[(4aR,5R)-4a-cyclopropyl-1-(4-fluorophenyl)-5-hydroxy-1,4,4a,5,6,7-hexahydrocyclopenta[f]indazol-5-yl]ethyl}pyridine-3-carboxamide], the midpoint of the response, the EC50, lay at 0.012 µM and the Emax worked out at 78%.
The corresponding values for `CC[C@]12Cc3cnn(-c4ccc(F)cc4)c3C=C1CC[C@@]2(O)CC(O)c1ccc(F)cn1` (single isomer, unassigned) [Example 69a] are 0.111 µM and 74%.
Turning to `OC(C[C@]1(O)CCC2=Cc3c(cnn3-c3ccc(F)cc3)C[C@@]21C1CC1)c1ccc(F)cn1` (single isomer, unassigned) [Example 79a], the midpoint of the response, the EC50, lay at 0.167 µM and the Emax was found to be 41%.
In the same order, the values of `NC(=O)c1cccnc1CC[C@]1(O)CCC2=Cc3c(cnn3-c3ccc(F)cc3)C[C@@]21C1CC1` [Example 1, 2-{2-[(4aR,5R)-4a-Cyclopropyl-1-(4-fluorophenyl)-5-hydroxy-1,4,4a,5,6,7-hexahydrocyclopenta[f]indazol-5-yl]ethyl}pyridine-3-carboxamide] are 0.055 µM and 77%.
In the same order, the values of `O[C@@]1(CCc2cc(C(F)(F)F)ccn2)CCC2=Cc3c(cnn3-c3ccc(F)cc3)C[C@@]21C1CC1` [Example 32, (4aR,5R)-4a-Cyclopropyl-1-(4-fluorophenyl)-5-{2-[4-(trifluoromethyl)pyridin-2-yl]ethyl}-1,4,4a,5,6,7-hexahydrocyclopenta[f]indazol-5-ol] are 0.266 µM and 83%.
In the case of `CC[C@]12Cc3cnn(-c4ccc(F)cc4)c3C=C1CC[C@@]2(O)CCc1ccccc1C(O)C(N)=O` (stereo partly drawn) [Example 25, 2-(2-{2-[(4aS,5R)-4a-Ethyl-1-(4-fluorophenyl)-5-hydroxy-1,4,4a,5,6,7-hexahydrocyclopenta[f]indazol-5-yl]ethyl}phenyl)-2-hydroxyacetamide], the EC50 was 0.118 µM and the Emax amounted to 74%.
In the same order, the values of `Cc1ccnc(CC[C@]2(O)CCC3=Cc4c(cnn4-c4ccc(F)cc4)C[C@@]32C2CC2)c1` [Example 36, (4aR,5R)-4a-Cyclopropyl-1-(4-fluorophenyl)-5-[2-(4-methylpyridin-2-yl)ethyl]-1,4,4a,5,6,7-hexahydrocyclopenta[f]indazol-5-ol] are 0.114 µM and 72%.
